pEC50: −log10 of the molar value.

For one assay, the system named is recombinant NL-Rluc virus. Kind of assay: Inhibition of HIV replication (NL-RLuc luciferase reporter virus, MT-2 cells). The format is cell-based. To be noted: Human immunodeficiency virus 1, MT2, 120 h, read-out: Activity. On the technique in general: A reporter such as luciferase makes a cellular process visible.
`Cc1nc2cc(C(=O)NCCOc3ccccc3)nn2c(-c2cc(F)c3c(c2C)CCCO3)c1[C@H](OC(C)(C)C)C(=O)O` [Example 55, (2S)-2-(tert-butoxy)-2-(7-(8-fluoro-5-methylchroman-6-yl)-5-methyl-2-((2-phenoxyethyl)carbamoyl)pyrazolo[1,5-a]pyrimidin-6-yl)acetic acid]: the pEC50 was > 7.00. `Cc1nc2cc(C(=O)NCc3ccc(Cl)c(C(F)(F)F)c3)nn2c(-c2cc(F)c3c(c2C)CCCO3)c1[C@H](OC(C)(C)C)C(=O)O` [Example 120, (2S)-2-(tert-butoxy)-2-(2-((4-chloro-3-(trifluoromethyl)benzyl)carbamoyl)-7-(8-fluoro-5-methylchroman-6-yl)-5-methylpyrazolo[1,5-a]pyrimidin-6-yl)acetic acid]: the pEC50 is > 7.00. Take `Cc1nc2cc(C(=O)NCCOC(C)(C)C)nn2c(-c2cc(F)c3c(c2C)CCCO3)c1[C@H](OC(C)(C)C)C(=O)O` [Example 103, (2S)-2-(tert-butoxy)-2-(2-((2-(tert-butoxy)ethyl)carbamoyl)-7-(8-fluoro-5-methylchroman-6-yl)-5-methylpyrazolo[1,5-a]pyrimidin-6-yl)acetic acid]: the pEC50 was 6.00 to 7.00. For `Cc1nc2cc(C(=O)N(C)Cc3cccnc3)nn2c(-c2cc(F)c3c(c2C)CCCO3)c1[C@H](OC(C)(C)C)C(=O)O` [Example 97, (2S)-2-(tert-butoxy)-2-(7-(8-fluoro-5-methylchroman-6-yl)-5-methyl-2-(methyl(pyridin-3-ylmethyl)carbamoyl)pyrazolo[1,5-a]pyrimidin-6-yl)acetic acid], the pEC50 is < 6.00. Consider `Cc1nc2cc(C(=O)N3CCN(c4ccc(F)cc4)CC3)nn2c(-c2cc(F)c3c(c2C)CCCO3)c1[C@H](OC(C)(C)C)C(=O)O` [Example 87, (2S)-2-(tert-butoxy)-2-(7-(8-fluoro-5-methylchroman-6-yl)-2-(4-(4-fluorophenyl)piperazine-1-carbonyl)-5-methylpyrazolo[1,5-a]pyrimidin-6-yl)acetic acid], for which the pEC50 is > 7.00. The same measure, in the same setting: then `Cc1nc2cc(C(=O)N[C@H]3C[C@@H]3c3ccccc3)nn2c(-c2cc(F)c3c(c2C)CCCO3)c1[C@H](OC(C)(C)C)C(=O)O` [Example 56, (2S)-2-(tert-butoxy)-2-(7-(8-fluoro-5-methylchroman-6-yl)-5-methyl-2-(((1S,2R)-2-phenylcyclopropyl)carbamoyl)pyrazolo[1,5-a]pyrimidin-6-yl)acetic acid], with > 7.00; and `Cc1nc2cc(C(=O)NCC3CCN(C(=O)C(C)C)CC3)nn2c(-c2cc(F)c3c(c2C)CCCO3)c1[C@H](OC(C)(C)C)C(=O)O` [Example 2, (2S)-2-(tert-Butoxy)-2-(7-(8-fluoro-5-methylchroman-6-yl)-2-(((1-isobutyrylpiperidin-4-yl)methyl)carbamoyl)-5-methylpyrazolo[1,5-a]pyrimidin-6-yl)acetic acid], with < 6.00. With `Cc1nc2cc(C(=O)NCCC(C)(C)C)nn2c(-c2cc3c(cc2F)OCCN3)c1[C@H](OC(C)(C)C)C(=O)O` [Example 146, (2S)-2-(tert-Butoxy)-2-(2-((3,3-dimethylbutyl)carbamoyl)-7-(7-fluoro-3,4-dihydro-2H-benzo[b][1,4]oxazin-6-yl)-5-methylpyrazolo[1,5-a]pyrimidin-6-yl)acetic acid], the pEC50 is > 7.00. On the same count and under the same terms, then `COc1ccccc1CNC(=O)c1cc2nc(C)c([C@H](OC(C)(C)C)C(=O)O)c(-c3cc(F)c4c(c3C)CCCO4)n2n1` [Example 42, (2S)-2-(tert-butoxy)-2-(7-(8-fluoro-5-methylchroman-6-yl)-2-((2-methoxybenzyl)carbamoyl)-5-methylpyrazolo[1,5-a]pyrimidin-6-yl)acetic acid], with > 7.00. For the molecule `Cc1nc2cc(C(=O)N3CCC(c4ccc(Cl)cc4)CC3)nn2c(-c2cc(F)c3c(c2C)CCCO3)c1[C@H](OC(C)(C)C)C(=O)O` [Example 86, (2S)-2-(tert-butoxy)-2-(2-(4-(4-chlorophenyl)piperidine-1-carbonyl)-7-(8-fluoro-5-methylchroman-6-yl)-5-methylpyrazolo[1,5-a]pyrimidin-6-yl)acetic acid], the pEC50 is > 7.00.

On to `Cc1nc2cc(C(=O)N3CCC(CCO)CC3)nn2c(-c2cc(F)c3c(c2C)CCCO3)c1[C@H](OC(C)(C)C)C(=O)O` [Example 106, (2S)-2-(tert-butoxy)-2-(7-(8-fluoro-5-methylchroman-6-yl)-2-(4-(2-hydroxyethyl)piperidine-1-carbonyl)-5-methylpyrazolo[1,5-a]pyrimidin-6-yl)acetic acid], for which the pEC50 was < 6.00. On to `Cc1nc2cc(C(=O)NCC3CCCCC3)nn2c(-c2cc(F)c3c(c2C)CCCO3)c1[C@H](OC(C)(C)C)C(=O)O` [Example 16, (2S)-2-(tert-butoxy)-2-(2-((cyclohexylmethyl)carbamoyl)-7-(8-fluoro-5-methylchroman-6-yl)-5-methylpyrazolo[1,5-a]pyrimidin-6-yl)acetic acid], for which the pEC50 was > 7.00. As for `CON(Cc1ccc(F)cc1)C(=O)c1cc2nc(C)c([C@H](OC(C)(C)C)C(=O)O)c(-c3cc(F)c4c(c3C)CCCO4)n2n1` [Example 17, (2S)-2-(tert-butoxy)-2-(7-(8-fluoro-5-methylchroman-6-yl)-2-((4-fluorobenzyl)(methoxy)carbamoyl)-5-methylpyrazolo[1,5-a]pyrimidin-6-yl)acetic acid], the pEC50 was > 7.00. On to `Cc1nc2cc(C(=O)N(C)Cc3ccccc3)nn2c(-c2cc(F)c3c(c2C)CCCO3)c1[C@H](OC(C)(C)C)C(=O)O` [Example 33, (2S)-2-(2-(benzyl(methyl)carbamoyl)-7-(8-fluoro-5-methylchroman-6-yl)-5-methylpyrazolo[1,5-a]pyrimidin-6-yl)-2-(tert-butoxy)acetic acid], for which the pEC50 was > 7.00.

Still in this assay, the particulars now being: Human immunodeficiency virus 1, MT2, 120 h, read-out: EC50 μM.
As usually defined, the EC50 is the concentration needed to bring the measured effect to its halfway point. For the molecule `Cc1nc2cc(C(=O)NCCOC(C)(C)C)nn2c(-c2cc(F)c3c(c2C)CCCO3)c1[C@H](OC(C)(C)C)C(=O)O` [Example 103, (2S)-2-(tert-butoxy)-2-(2-((2-(tert-butoxy)ethyl)carbamoyl)-7-(8-fluoro-5-methylchroman-6-yl)-5-methylpyrazolo[1,5-a]pyrimidin-6-yl)acetic acid], the EC50 worked out at 0.073 µM.
